Assay results: US20260053811A1, “METHODS OF TREATING HYPERTENSION IN OBESE SUBJECTS” (Mineralys Therapeutics, Inc., priority 2022, published 2026)

System: hypertensive subjects
Assay: Seated automated office blood pressure (AOBP) in randomized, placebo-controlled, dose-ranging study
Format: in vivo, human
Conditions: 100 mg QD; for Mean Automated Office-Measured Systolic Blood Pressure at Wk 8 / Mean Change from Baseline at Week 8 in Automated Office-Measured Systolic Blood Pressure / Automated Office-Measured Diastolic Blood Pressure, Week 8, mean / Change from Baseline at Week 8 in Automated Office-Measured Diastolic Blood Pressure, mean: Part 2
Experimental: A randomized, double-blinded, placebo-controlled, dose-ranging, multicenter study was conducted to evaluate the effect of orally administered Compound A HBr on blood pressure for the treatment of hypertension in male and female subjects ≥18 years of age.
The study consists of two parts. For enrollment into Part 1 of the study, a subject's value of plasma renin activity (PRA) must be ≤1 ng/mL/h based on morning measurement. If the value of PRA >1 ng/mL/h based on morning measurement, then subjects may be eligible to enter Part 2 of the study.
For Part 1, 163 enrolled subjects ≥18 years of age were randomized into 6 equal treatment groups (1:1:1:1:1:1) to 12.5 mg BID, 25 mg BID, 12.5 mg QD, 50 mg QD, 100 mg QD, or placebo. After a review of interim clinical data, the 2 lowest dose levels (12.5 mg QD and 12.5 mg BID) were stopped for future randomization due to a lack of consistent meaningful reduction of blood pressure, but the patients randomized to that point remained in the study through completion. Thus, after the review of interim clinical data, subjects were randomized into 4 equal treatment groups (1:1:1:1) to 25 mg BID, 50 mg QD, 100 mg QD, or placebo.
For Part 2, 36 enrolled subjects ≥18 years of age were randomized (5:1) to either 100 mg QD Compound A HBr or placebo such that the Compound A HBr treatment group consisted of approximately 30 subjects and the placebo treatment group will consist of approximately 6 subjects.
Subjects orally administered the assigned study drug (Compound A HBr or placebo) according to the assigned dosing regimen for 8 weeks beginning on Study Day 1. All subjects in Part 1 (regardless of dosing group) received BID dosing to preserve the integrity of the blind; active drug is administered as the morning dose for all QD dose groups. Subjects returned to the research facility or were seen by the clinical investigator or approved home health care professional at the end of Study Weeks 1, 2, 3, 4, 5, 6, 7, and 8 (±2 days) for protocol-defined efficacy and safety assessments and procedures, assessment of adverse events (AEs), and confirmation of compliance with study drug usage. Subjects also completed a telephone visit and blood pressure (BP) check at home approximately 3 days post last dose of study drug. Subjects attended up to 14 full clinic visits, including a pre-Screening visit, a Screening/start of Placebo Run-in visit, a second visit during Placebo Run-in, a clinic visit to initiate the ABPM procedure, a Randomization visit, 8 weekly visits during double-blind treatment, and an end-of-study visit scheduled 4 weeks after the last study treatment for final efficacy and safety assessments.
An automated oscillometric sphygmomanometer device was used to measure the subjects' systolic and diastolic blood pressure in office after approximately 5 minutes of rest in the seated position.
The primary endpoint is the change in office-measured (mean of last 2 of 5 unattended measurements using an automated oscillometric sphygmomanometer device after approximately 5 minutes of rest in the seated position) systolic blood pressure (SBP) from baseline to the end of Study Week 8.
Secondary endpoints of this study were: • (a) Change in 24-hour ambulatory blood pressure monitoring (ABPM) parameters (systolic and diastolic) from baseline to the end of Study Week 7. • (b) Change in office-measured SBP from baseline to the end of Study Weeks 1, 2, 3, 4, 5, 6, and 7. • (c) Change in office-measured diastolic blood pressure (DBP) from baseline to the end of Study Weeks 1, 2, 3, 4, 5, 6, 7, and 8. • (d) Proportion of subjects who achieve office-measured BP of ≤130/80 mm Hg by the end of Study Week 8.

[1] = Part 1, Thiazide Diuretic Use at Baseline No
[2] = Part 1, Thiazide Diuretic Use at Baseline Yes
[3] = Systolic Blood Pressure Tertile at Baseline High
[4] = Systolic Blood Pressure Tertile at Baseline Low
[5] = Systolic Blood Pressure Tertile at Baseline Middle
[6] = Thiazide Diuretic Use at Baseline No
[7] = Thiazide Diuretic Use at Baseline Yes

Structure (SMILES): CC(=O)N[C@H]1CC[C@H](NC(=O)CN2CCN(c3nncc(-c4ccc(C)cc4)n3)CC2)CC1 [Compound A HBr]
- Mean (SD) Change from Baseline at Week 8 in Automated Office-Measured Diastolic Blood Pressure [1]: −4.00 (6.33) mmHg
- Mean (SD) Change from Baseline at Week 8 in Automated Office-Measured Systolic Blood Pressure [1]: −9.15 (9.27) mmHg
- Automated Office-Measured Diastolic Blood Pressure, Week 8, Mean (SD) [2]: 73.40 (8.98) mmHg
- Mean (SD) Automated Office-Measured Systolic Blood Pressure at Wk 8 [2]: 128.27 (16.26) mmHg
- Mean (SD) Change from Baseline at Week 8 in Automated Office-Measured Diastolic Blood Pressure [2]: −6.43 (8.79) mmHg
- Mean (SD) Change from Baseline at Week 8 in Automated Office-Measured Systolic Blood Pressure [2]: −17.37 (14.74) mmHg
- Mean Automated Office-Measured Systolic Blood Pressure at Wk 8 (ACEi/ARB No): 131.00 mmHg
- Mean Change from Baseline at Week 8 in Automated Office-Measured Systolic Blood Pressure (ACEi/ARB No): −4.00 mmHg
- Mean Automated Office-Measured Systolic Blood Pressure at Wk 8 (ACEi/ARB Yes): 129.24 mmHg
- Mean Change from Baseline at Week 8 in Automated Office-Measured Systolic Blood Pressure (ACEi/ARB Yes): −11.45 mmHg
- Mean Automated Office-Measured Systolic Blood Pressure at Wk 8 (AHTs 2): 127.84 mmHg
- Mean Change from Baseline at Week 8 in Automated Office-Measured Systolic Blood Pressure (AHTs 2): −10.37 mmHg
- Mean Automated Office-Measured Systolic Blood Pressure at Wk 8 (AHTs ≥3): 131.82 mmHg
- Mean Change from Baseline at Week 8 in Automated Office-Measured Systolic Blood Pressure (AHTs ≥3): −12.64 mmHg
- Mean Automated Office-Measured Systolic Blood Pressure at Wk 8 (Age 65-79 yr): 132.81 mmHg
- Mean Change from Baseline at Week 8 in Automated Office-Measured Systolic Blood Pressure (Age 65-79 yr): −9.69 mmHg
- Mean Automated Office-Measured Systolic Blood Pressure at Wk 8 (Age <65 yr): 120.88 mmHg
- Mean Change from Baseline at Week 8 in Automated Office-Measured Systolic Blood Pressure (Age <65 yr): −13.06 mmHg
- Mean Automated Office-Measured Systolic Blood Pressure at Wk 8 (Age ≥80 yr): 123.00 mmHg
- Mean Change from Baseline at Week 8 in Automated Office-Measured Systolic Blood Pressure (Age ≥80 yr): −28.00 mmHg
- Mean Automated Office-Measured Systolic Blood Pressure at Wk 8 (BMI at baseline 25-30 kg/m^2): 126.80 mmHg
- Mean Change from Baseline at Week 8 in Automated Office-Measured Systolic Blood Pressure (BMI at baseline 25-30 kg/m^2): −14.60 mmHg
- Mean Automated Office-Measured Systolic Blood Pressure at Wk 8 (BMI at baseline <25 kg/m^2): 130.00 mmHg
- Mean Change from Baseline at Week 8 in Automated Office-Measured Systolic Blood Pressure (BMI at baseline <25 kg/m^2): −6.50 mmHg
- Mean Automated Office-Measured Systolic Blood Pressure at Wk 8 (BMI at baseline >30 kg/m^2): 132.08 mmHg
- Mean Change from Baseline at Week 8 in Automated Office-Measured Systolic Blood Pressure (BMI at baseline >30 kg/m^2): −8.00 mmHg
- Mean Automated Office-Measured Systolic Blood Pressure at Wk 8 (Race Black or AA): 125.83 mmHg
- Mean Change from Baseline at Week 8 in Automated Office-Measured Systolic Blood Pressure (Race Black or AA): −15.83 mmHg
- Mean Automated Office-Measured Systolic Blood Pressure at Wk 8 (Race Other): 130.17 mmHg
- Mean Change from Baseline at Week 8 in Automated Office-Measured Systolic Blood Pressure (Race Other): −10.04 mmHg
- Mean Automated Office-Measured Systolic Blood Pressure at Wk 8 (Sex Female): 127.90 mmHg
- Mean Change from Baseline at Week 8 in Automated Office-Measured Systolic Blood Pressure (Sex Female): −11.15 mmHg
- Mean Automated Office-Measured Systolic Blood Pressure at Wk 8 (Sex Male): 132.10 mmHg
- Mean Change from Baseline at Week 8 in Automated Office-Measured Systolic Blood Pressure (Sex Male): −11.30 mmHg
- Mean Automated Office-Measured Systolic Blood Pressure at Wk 8 [3]: 132.36 mmHg
- Mean Change from Baseline at Week 8 in Automated Office-Measured Systolic Blood Pressure [3]: −17.05 mmHg
- Mean Automated Office-Measured Systolic Blood Pressure at Wk 8 [4]: 124.11 mmHg
- Mean Change from Baseline at Week 8 in Automated Office-Measured Systolic Blood Pressure [4]: −7.56 mmHg
- Mean Automated Office-Measured Systolic Blood Pressure at Wk 8 [5]: 130.60 mmHg
- Mean Change from Baseline at Week 8 in Automated Office-Measured Systolic Blood Pressure [5]: −8.05 mmHg
- Automated Office-Measured Diastolic Blood Pressure, Week 8, mean [6]: 68.42 mmHg
- Change from Baseline at Week 8 in Automated Office-Measured Diastolic Blood Pressure, mean [6]: −8.13 mmHg
- Mean Automated Office-Measured Systolic Blood Pressure at Wk 8 [6]: 125.67 mmHg
- Mean Change from Baseline at Week 8 in Automated Office-Measured Systolic Blood Pressure [6]: −12.25 mmHg
- Automated Office-Measured Diastolic Blood Pressure, Week 8, mean [7]: 74.67 mmHg
- Change from Baseline at Week 8 in Automated Office-Measured Diastolic Blood Pressure, mean [7]: −4.06 mmHg
